What was measured:
HT-29 = assay: Cytotoxicity against human HT-29 cells assessed as reduction of cell viability measured after 16 hrs by crystal violet staining assay; assay type: functional, cell-based
L6 = assay: Cytotoxicity against rat L6 cells assessed as reduction in cell viability after 72 hrs by Alamar blue dye-based fluorometric analysis
[1] = Selectivity index, ratio of IC50 for cytotoxicity against rat L6 cells to IC50 for antiprotozoal activity against Plasmodium falciparum NF54; assay type: toxicity, cell-based
Trypanosoma cruzi = assay: Antiprotozoal activity against Trypanosoma cruzi Tulahuen C4 amastigotes infected in rat L6 cells assessed as growth inhibition after 96 by photometric analysis; assay type: functional, organism-based
Leishmania donovani = assay: Antiprotozoal activity against Leishmania donovani MHOM/ET/67/L82 axenic amastigotes assessed as growth inhibition after 72 hrs by Alamar Blue dye-based fluorometric analysis; assay type: functional, organism-based
[2] = test system: Trypanosoma brucei rhodesiense; assay: Antiprotozoal activity against Trypanosoma brucei rhodesiense STIB900 trypomastigotes assessed as growth inhibition after 72 hrs by Alamar Blue dye-based fluorometric analysis; assay type: functional, organism-based
Plasmodium falciparum [3] = assay: Antiprotozoal activity against chloroquine-sensitive Plasmodium falciparum NF54 assessed as growth inhibition incubated for 48 hrs by [3H]-hypoxanthine incorporation assay; assay type: functional, organism-based
HT-1080 = assay: Cytotoxicity against human HT1080 cells assessed as reduction of cell viability measured after 16 hrs by crystal violet staining assay; assay type: functional, cell-based; conditions: HT-1080, 16 h
MM1.S = assay: Cytotoxicity against human MM1S cells assessed as reduction of cell viability incubated for overnight by MTT assay; assay type: functional, cell-based
Plasmodium falciparum [4] = assay: Antiprotozoal activity against asexual erythrocytic form of chloroquine-sensitive Plasmodium falciparum NF54 clone A1A9 assessed as growth inhibition incubated for 42 hrs by [3H]-hypoxanthine incorporation assay; assay type: functional, organism-based
[5] = Leishmania donovani, MHOM/ET/67/L82, 72 h
[6] = Trypanosoma cruzi, Tulahuen C4, L6

IC50 (Trypanosoma cruzi) [µM] | IC50 [2] [nM] | SMILES | IC50 (L6) [µM] | Ratio IC50 [1] | IC50 (Plasmodium falciparum [3]) [nM] | also measured
– | – | COc1cc(O)c(-c2c(C)cc(OC)c3c(OC)cccc23)c2c1[C@H](C)N[C@H](C)C2 | – | – | – | IC50 (HT-29): Not Active
8.1 | 160 | COc1cccc2c(-c3ccc4c(c3O)[C@@H](C)N[C@H](C)C4)c(C)c(-c3c(C)c(-c4ccc5c(c4O)[C@@H](C)N[C@H](C)C5)c4cccc(OC)c4c3O)c(O)c12 (stereo in doubt; 1c) | 2.3 | 41.6 | 55 | IC50 (Leishmania donovani): 65.2 µM
13.7 | 820 | COc1cccc2c(-c3ccc4c(c3O)[C@@H](C)N[C@H](C)C4)c(C)c(-c3c(C)c(-c4ccc5c(c4O)[C@@H](C)N[C@H](C)C5)c4cccc(OC)c4c3O)c(O)c12 (stereo in doubt; 1d) [listing 1 of 2 here] | 15.9 | 11400 | – | IC50 (HT-1080): 9 µM; IC50 (HT-29; read-out: IC50): 12 µM; IC50 (Leishmania donovani): 80.2 µM; IC50 (MM1.S): 5 µM
– | – | COc1cccc2c(-c3ccc4c(c3O)[C@@H](C)N(C)[C@@H](C)C4)c(C)cc(OC)c12 | – | – | – | IC50 (HT-29): Not Active
– | – | COc1cccc2c(-c3ccc4c(c3O)[C@@H](C)N[C@H](C)C4)c(C)cc(OC)c12 [DIONCOPHYLLINE A] | – | – | – | IC50 (Plasmodium falciparum [4]): 3.8 µM
– | – | COc1cc(O)c2c(c1-c1c(C)cc(O)c3c(OC)cccc13)C[C@H](C)N[C@H]2C | – | – | – | IC50 (HT-29): Not Active
– | – | CCCCCCCCCCCCCCCCOP(=O)([O-])OCC[N+](C)(C)C [MILTEFOSINE] | – | – | – | IC50 (Leishmania donovani; [5]): 0.8 µM
17.1 | 320 | COc1cccc2c(-c3ccc4c(c3O)[C@@H](C)N[C@H](C)C4)c(C)c(-c3c(C)c(-c4ccc5c(c4O)[C@@H](C)N[C@H](C)C5)c4cccc(OC)c4c3O)c(O)c12 (stereo in doubt; 1b) | 4.3 | 206 | 21 | –
– | – | O=C(Cn1ccnc1[N+](=O)[O-])NCc1ccccc1 [BENZNIDAZOLE] | – | – | – | IC50 (Trypanosoma cruzi; [6]): 2.6 µM
14.9 | 490 | COc1cccc2c(-c3ccc4c(c3O)[C@@H](C)N[C@H](C)C4)c(C)c(-c3c(C)c(-c4ccc5c(c4O)[C@@H](C)N[C@H](C)C5)c4cccc(OC)c4c3O)c(O)c12 (stereo in doubt; 1a) | 7.9 | 660 | 12 | IC50 (HT-29; read-out: IC50): > 50 µM; IC50 (Leishmania donovani; [5]): > 100 µM
– | – | COc1cccc2c(-c3ccc4c(c3O)[C@@H](C)N[C@H](C)C4)c(C)c(-c3c(C)c(-c4ccc5c(c4O)[C@@H](C)N[C@H](C)C5)c4cccc(OC)c4c3O)c(O)c12 (stereo in doubt; 1d) [listing 2 of 2 here] | – | – | – | inhibition (HT-29): Dose-dependent effect
45.1 | 4800 | COc1cccc2c(-c3ccc4c(c3O)[C@@H](C)N[C@H](C)C4)c(C)cc(O)c12 (stereo in doubt; 4b) | 44.8 | 52.7 | 850 | –
– | – | COc1cccc2c(-c3ccc4c(c3O)[C@@H](C)N[C@H](C)C4)c(C)cc(O)c12 (stereo in doubt; 4a) | 9.1 | 13.7 | – | IC50 (Trypanosoma cruzi; [6]): 24.4 µM; IC50 (Leishmania donovani; [5]): > 100 µM; IC50 ([2]; Trypanosoma brucei, STIB900, 72 h): 6100 nM; IC50 (Plasmodium falciparum [3]; Plasmodium falciparum, NF54): 670 nM

Source: ChEMBL document CHEMBL4334514, “A Near-Complete Series of Four Atropisomeric Jozimine A2-Type Naphthylisoquinoline Dimers with Antiplasmodial and Cytotoxic Activities and Related Alkaloids from Ancistrocladus abbreviatus” (J Nat Prod, 2019)
